Experimental data: ChEMBL document CHEMBL1201862, “PubChem BioAssay data set” (2004)
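Where inhibition never reached the appropriate level, the endpoint shown equals the highest concentration tested. Otherwise, values were interpolated linearly from a five-concentration, 48-hour dose response in 96-well plates. At the GI50, growth is halved.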 Activity calls are given as the source filed them. No stated cut-off is given here; in the data, active = GI50 up to about 1.1 µM and inactive = higher.

What was measured:
Experiment in all cases: DTP human tumour cell line panel, 48 h
Malme-3M = tested on: Malme-3M
NCI-H522 = tested on: NCI-H522
SK-MEL-5 = tested on: SK-MEL-5
CAKI-1 = tested on: CAKI-1
ACHN = tested on: ACHN
SN12C = tested on: SN12C
K562 = tested on: K562
M14 = tested on: M14
OVCAR-4 = tested on: OVCAR-4
NCI-H460 = tested on: NCI-H460
NCI-H226 = tested on: NCI-H226
HOP-92 = tested on: HOP-92
A498 = tested on: A498
SF-268 = tested on: SF-268
SF-295 = tested on: SF-295
HOP-62 = tested on: HOP-62
OVCAR-3 = tested on: OVCAR-3
OVCAR-8 = tested on: OVCAR-8
NCI/ADR-RES = tested on: NCI/ADR-RES
BT-549 = tested on: BT-549

Row | SMILES | GI50 (Malme-3M) | GI50 (NCI-H522) | GI50 (SK-MEL-5) | GI50 (CAKI-1) | GI50 (ACHN) | GI50 (SN12C) | GI50 (K562) | GI50 (M14) | GI50 (OVCAR-4) | GI50 (NCI-H460) | GI50 (NCI-H226) | GI50 (HOP-92) | GI50 (A498) | GI50 (SF-268) | GI50 (SF-295) | GI50 (HOP-62) | GI50 (OVCAR-3) | GI50 (OVCAR-8) | GI50 (NCI/ADR-RES) | GI50 (BT-549)
1 | Cc1[nH]c2cc([N+](=O)[O-])ccc2c1[N+](=O)[O-] | 13.9 µM (inactive) | 13.3 µM (inactive) | 14 µM (inactive) | 19 µM (inactive) | 15.5 µM (inactive) | 25.6 µM (inactive) | 22.2 µM (inactive) | 19.5 µM (inactive) | 14.1 µM (inactive) | 20.6 µM (inactive) | 14.2 µM (inactive) | 3.9 µM (inactive) | 17.3 µM (inactive) | 22.1 µM (inactive) | 17.3 µM (inactive) | 7.28 µM (inactive) | 25.1 µM (inactive) | 25.8 µM (inactive) |  | 
2 | COc1nc2ccc(CNc3ccc(C(=O)O)cc3)cc2nc1OC | > 10 µM (inactive) | > 10 µM (inactive) | > 10 µM (inactive) | > 10 µM (inactive) | > 10 µM (inactive) | > 10 µM (inactive) | > 10 µM (inactive) | > 10 µM (inactive) | > 10 µM (inactive) | > 10 µM (inactive) | > 10 µM (inactive) |  | > 10 µM (inactive) | > 10 µM (inactive) | > 10 µM (inactive) | > 10 µM (inactive) | > 10 µM (inactive) | > 10 µM (inactive) | > 10 µM (inactive) | > 10 µM (inactive)
3 | CCCOC(=O)C1C(c2ccc(OC)cc2)NC(c2ccc(OC)cc2)C(C(=O)OCCC)S1(=O)=O (stereo not drawn) | > 10 µM (inactive) | > 10 µM (inactive) | > 10 µM (inactive) | > 10 µM (inactive) | > 10 µM (inactive) | > 10 µM (inactive) | > 10 µM (inactive) | > 10 µM (inactive) | > 10 µM (inactive) | > 10 µM (inactive) | > 10 µM (inactive) | > 10 µM (inactive) | 85.3 µM (inactive) | > 10 µM (inactive) | > 10 µM (inactive) | > 10 µM (inactive) | > 10 µM (inactive) | > 10 µM (inactive) |  | 
4 | Cc1cc(=O)oc2c(C)c3oc(CBr)c(Br)c3cc12 | > 10 µM (inactive) | 14.7 µM (inactive) | 18.2 µM (inactive) | 17.2 µM (inactive) | 35.6 µM (inactive) | 20.1 µM (inactive) | 19.6 µM (inactive) | 22 µM (inactive) | 28.5 µM (inactive) | 18.9 µM (inactive) | 30 µM (inactive) |  |  | 25.6 µM (inactive) | 17.2 µM (inactive) | 27 µM (inactive) | > 100 µM (inactive) | 24.7 µM (inactive) | 33.7 µM (inactive) | 29.3 µM (inactive)
5 | [N-]=[N+]=Nc1c(Cl)c(=O)n(-c2ccccc2)c2ccccc12 | 22.2 µM (inactive) |  | 3.15 µM (inactive) | 21.7 µM (inactive) | 21.5 µM (inactive) | 22 µM (inactive) | 14.8 µM (inactive) | 16.6 µM (inactive) | 17.4 µM (inactive) | 34.8 µM (inactive) |  | 19.3 µM (inactive) |  | 19.8 µM (inactive) | 30.7 µM (inactive) | 24 µM (inactive) | 17.3 µM (inactive) |  | 24.2 µM (inactive) | 19.9 µM (inactive)
6 | CC(C)C1CN1CC(O)Cn1ccnc1[N+](=O)[O-] (stereo not drawn) | 62.2 µM (inactive) | > 100 µM (inactive) | > 100 µM (inactive) | > 100 µM (inactive) | > 100 µM (inactive) | > 100 µM (inactive) | > 100 µM (inactive) | > 100 µM (inactive) | > 100 µM (inactive) | > 100 µM (inactive) | > 100 µM (inactive) |  | > 100 µM (inactive) | > 100 µM (inactive) | > 100 µM (inactive) | > 100 µM (inactive) | > 100 µM (inactive) | > 100 µM (inactive) | > 100 µM (inactive) | > 100 µM (inactive)
7 | CCOC(=O)c1nc[nH]c1/N=N/N(C)N | > 100 µM (inactive) | 22.4 µM (inactive) | > 100 µM (inactive) | 15.4 µM (inactive) | > 100 µM (inactive) | > 100 µM (inactive) | > 10 µM (inactive) | > 100 µM (inactive) | > 100 µM (inactive) | 25.3 µM (inactive) | > 100 µM (inactive) |  | 40.6 µM (inactive) | > 100 µM (inactive) | 91.2 µM (inactive) | > 100 µM (inactive) | > 100 µM (inactive) | > 100 µM (inactive) | > 100 µM (inactive) | > 100 µM (inactive)
8 | N#CCC1C2CC3C(C2=O)C13 (stereo not drawn) | > 100 µM (inactive) | > 100 µM (inactive) | > 100 µM (inactive) | > 100 µM (inactive) | > 100 µM (inactive) | > 100 µM (inactive) | > 100 µM (inactive) | > 100 µM (inactive) | > 100 µM (inactive) | > 100 µM (inactive) | > 100 µM (inactive) | > 100 µM (inactive) | > 100 µM (inactive) | > 100 µM (inactive) | > 100 µM (inactive) | > 100 µM (inactive) | > 100 µM (inactive) | > 100 µM (inactive) | > 100 µM (inactive) | 
9 | Cc1cc2nc3ccccc3n2c2ccccc12 | > 10 µM (inactive) | > 10 µM (inactive) | > 10 µM (inactive) | > 10 µM (inactive) | > 10 µM (inactive) | > 10 µM (inactive) | > 10 µM (inactive) | > 10 µM (inactive) | > 10 µM (inactive) | 4.3 µM (inactive) | 6.17 µM (inactive) |  |  | > 10 µM (inactive) | > 10 µM (inactive) | > 10 µM (inactive) | > 10 µM (inactive) | > 10 µM (inactive) | > 10 µM (inactive) | 
10 | COc1ccc(CCN2CCN(CCCc3ccccc3)CC2)cc1 | > 100 µM (inactive) | > 100 µM (inactive) | 23.2 µM (inactive) | > 100 µM (inactive) | > 100 µM (inactive) | > 100 µM (inactive) | 38.6 µM (inactive) | 86.9 µM (inactive) | 71.6 µM (inactive) | 84.5 µM (inactive) | > 100 µM (inactive) |  | > 100 µM (inactive) | > 100 µM (inactive) | > 100 µM (inactive) | > 100 µM (inactive) | 80 µM (inactive) | > 100 µM (inactive) | 83 µM (inactive) | 70.5 µM (inactive)
11 | COC1OC2COC(C)(C)OC2C2OC(C)(C)OC12 (stereo not drawn) | > 100 µM (inactive) | > 100 µM (inactive) | > 100 µM (inactive) | 14.6 µM (inactive) | 41.8 µM (inactive) | 21 µM (inactive) | 33.7 µM (inactive) | > 100 µM (inactive) | 22.2 µM (inactive) |  | 23.8 µM (inactive) |  | 55.2 µM (inactive) | > 100 µM (inactive) | 22.6 µM (inactive) | 21.7 µM (inactive) | > 100 µM (inactive) | 55.7 µM (inactive) | 63.8 µM (inactive) | > 100 µM (inactive)
12 | OC(C1CCCCCCCCCC1)C(O)C1CCCCCCCCCC1 (stereo not drawn) | > 100 µM (inactive) | 61 µM (inactive) | > 100 µM (inactive) | > 100 µM (inactive) | > 100 µM (inactive) | > 100 µM (inactive) | 55.1 µM (inactive) | > 100 µM (inactive) | > 100 µM (inactive) | > 100 µM (inactive) | > 100 µM (inactive) |  |  | > 100 µM (inactive) | > 100 µM (inactive) | > 100 µM (inactive) | > 100 µM (inactive) | > 100 µM (inactive) | > 100 µM (inactive) | > 100 µM (inactive)
13 | CC(NC(=O)Cc1ccc(OP(=O)(OCc2ccc([N+](=O)[O-])o2)N(C)CCCCCl)cc1)c1ccc(OCC2CCCCC2)c(C(N)=O)c1 (stereo not drawn) | 1.77 µM (inactive) | 2.25 µM (inactive) | 1.6 µM (inactive) | 2.91 µM (inactive) | 3.56 µM (inactive) | 1.96 µM (inactive) | 2.77 µM (inactive) | 2.12 µM (inactive) | 2.16 µM (inactive) | 2.79 µM (inactive) | 2.48 µM (inactive) |  | 3.01 µM (inactive) | 2.22 µM (inactive) | 2.24 µM (inactive) | 2.65 µM (inactive) | 1.66 µM (inactive) | 3.6 µM (inactive) | 4.5 µM (inactive) | 
14 | NCCCNc1ccc2c3c(nn2CCNCCO)-c2c(O)ccc(O)c2C(=O)c13 | 1.51 µM (inactive) | 1.18 µM (inactive) | 0.925 µM (active) |  | 0.989 µM (active) |  |  | 3.2 µM (inactive) | 3.93 µM (inactive) |  | 0.406 µM (active) |  | 1.82 µM (inactive) | 1.35 µM (inactive) | 0.889 µM (active) | 0.362 µM (active) | 5.13 µM (inactive) |  | 29.7 µM (inactive) | 0.695 µM (active)
15 | COC1=C(Br)[C@H](O)[C@@]2(C=C1Br)CC(C(=O)NCCCCCNC(=N)N)=NO2 [APLYSINAMISINE II] | > 10 µM (inactive) | > 10 µM (inactive) | > 10 µM (inactive) |  | > 10 µM (inactive) | > 10 µM (inactive) | > 10 µM (inactive) | > 10 µM (inactive) | > 10 µM (inactive) | > 10 µM (inactive) | > 10 µM (inactive) |  | > 10 µM (inactive) | > 10 µM (inactive) | > 10 µM (inactive) | > 10 µM (inactive) | > 10 µM (inactive) | > 10 µM (inactive) | > 10 µM (inactive) | > 10 µM (inactive)
